Test results from US9315503B2, “Kinase inhibitors” (CHIESI FARMACEUTICI S.p.A., priority 2011, dated 2016).
Structures can show the parent of a compound that is named as a salt.

Tests used:
[1] = test system: LPS-stimulated TNFα release from PBMCs; test: LPS-stimulated PBMC TNFα release assay; type: cell-based; conditions: inhibition of TNFα release, human PBMCs, LPS 10 ng/ml, 18 h, ELISA, read-out: p38α inhibition (IC50 values)
Outline: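 Healthy-donor human PBMCs, density-gradient isolated, preincubated 1 h at 37 °C with compound in 1% FBS RPMI 1640, then stimulated with LPS (10 ng/ml) for 18 h. Supernatant TNFα by ELISA; IC50 from dose-response of % inhibition of control release, n≥3 experiments.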

p38alpha = target: T1, p38alpha (Homo sapiens, UniProt Q16539); test: P38Alpha enzyme inhibition assay (Alphascreen kinase activity assay); type: biochemical; conditions: 100 pM p38alpha, 250 μM ATP, 2 hours pre-incubation at 25° C., read-out: p38α inhibition (IC50 values)
T1 construct: purchased Invitrogen PV3304
Outline: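 p38α (100 pM) with ATF-2 fusion protein substrate (0.3 µg/ml) in pH 7.5 HEPES/MgCl2 buffer, 1% DMSO, preincubated 2 h at 25°C with compound. Reaction started with 250 µM ATP, ran 1 h at 25°C, then stopped with EDTA. Phospho-ATF2 antibody detected by AlphaScreen luminescence; IC50 from concentration-response curves.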

T1 sequence (Q16539 whole entry): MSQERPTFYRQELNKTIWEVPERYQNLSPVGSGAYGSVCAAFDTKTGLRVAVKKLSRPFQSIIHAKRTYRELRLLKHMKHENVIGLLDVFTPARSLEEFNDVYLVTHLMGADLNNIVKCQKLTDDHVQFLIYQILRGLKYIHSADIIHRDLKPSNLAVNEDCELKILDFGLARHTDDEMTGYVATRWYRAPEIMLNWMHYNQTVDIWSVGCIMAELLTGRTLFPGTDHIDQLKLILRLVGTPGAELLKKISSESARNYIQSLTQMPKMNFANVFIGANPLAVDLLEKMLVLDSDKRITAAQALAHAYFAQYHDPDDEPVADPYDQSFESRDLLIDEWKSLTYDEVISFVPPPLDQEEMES

IC50 (p38alpha) [nM] | Compound | IC50 [1] [nM]
< 10 | Cn1cc(-n2nc(C(C)(C)C)cc2NC(=O)N[C@H]2CC[C@@H](Oc3ccc4nnc(N5CCCCC5)n4c3)c3ccccc32)cn1 [Example 107, 1-(3-tert-Butyl-1′-methyl-1′H-[1,4′]bipyrazolyl-5-yl)-3-[(1S,4R)-4-(3-piperidin-1-yl-[1,2,4]triazolo[4,3-a]pyridin-6-yloxy)-1,2,3,4-tetrahydro-naphthalen-1-yl]-urea] | < 10
< 10 | Cc1ccc(-n2nc(C(C)(C)C)cc2NC(=O)N[C@H]2CC[C@@H](Oc3ccc4nnc(N5CCC[C@H]5CO)n4c3)c3ccccc32)cc1 [Example 28, 1-(5-tert-Butyl-2-p-tolyl-2H-pyrazol-3-yl)-3-{(1S,4R)-4-[3-((S)-2-hydroxymethyl-pyrrolidin-1-yl)-[1,2,4]triazolo[4,3-a]pyridin-6-yloxy]-1,2,3,4-tetrahydro-naphthalen-1-yl}-urea] | < 10
< 10 | Cc1ccc(-n2nc(C(C)(C)C)cc2NC(=O)N[C@H]2CC[C@@H](Oc3ccc4nnc(-c5cccc(CN6CCOCC6)c5)n4c3)c3ccccc32)cc1 [Example 19, 1-(5-tert-Butyl-2-p-tolyl-2H-pyrazol-3-yl)-3-{(1S,4R)-4-[3-(3-morpholin-4-ylmethyl-phenyl)-[1,2,4]triazolo[4,3-a]pyridin-6-yloxy]-1,2,3,4-tetrahydro-naphthalen-1-yl}-urea] | < 10
< 10 | C[C@H]1CCCCN1c1nnc2ccc(O[C@@H]3CC[C@H](NC(=O)Nc4cc(C(C)(C)C)nn4CCO)c4ccccc43)cn12 [Example 110, 1-[5-tert-Butyl-2-(2-hydroxy-ethyl)-2H-pyrazol-3-yl]-3-{(1S,4R)-4-[3-((S)-2-methyl-piperidin-1-yl)-[1,2,4]triazolo[4,3-a]pyridin-6-yloxy]-1,2,3,4-tetrahydro-naphthalen-1-yl}-urea] | < 10
< 10 | CN1CCN(Cc2ccc(-n3nc(C(C)(C)C)cc3NC(=O)N[C@H]3CC[C@@H](Oc4ccc5nnc(N6CCCCC6)n5c4)c4ccccc43)cc2)CC1 [Example 106, 1-{5-tert-Butyl-2-[4-(4-methyl-piperazin-1-ylmethyl)-phenyl]-2H-pyrazol-3-yl}-3-[(1S,4R)-4-(3-piperidin-1-yl-[1,2,4]triazolo[4,3-a]pyridin-6-yloxy)-1,2,3,4-tetrahydro-naphthalen-1-yl]-urea] | < 10
< 10 | CC(C)(C)c1cc(NC(=O)N[C@H]2CC[C@@H](Oc3ccc4nnc(N5CCCCC5)n4c3)c3ccccc32)n(-c2cccc(CN3CCN(CCO)CC3)c2)n1 [Example 50, 1-(5-tert-Butyl-2-{3-[4-(2-hydroxy-ethyl)-piperazin-1-ylmethyl]-phenyl}-2H-pyrazol-3-yl)-3-[(1S,4R)-4-(3-piperidin-1-yl-[1,2,4]triazolo[4,3-a]pyridin-6-yloxy)-1,2,3,4-tetrahydro-naphthalen-1-yl]-urea] | < 10
< 10 | CN1CCC[C@H]1c1nnc2ccc(O[C@@H]3CC[C@H](NC(=O)Nc4cc(C(C)(C)C)nn4-c4cccc(CO)c4)c4ccccc43)cn12 [Example 31, 1-[5-tert-Butyl-2-(3-hydroxymethyl-phenyl)-2H-pyrazol-3-yl]-3-{(1S,4R)-4-[3-((S)-1-methyl-pyrrolidin-2-yl)-[1,2,4]triazolo[4,3-a]pyridin-6-yloxy]-1,2,3,4-tetrahydro-naphthalen-1-yl}-urea] | < 10
< 10 | CC(C)(C)c1cc(NC(=O)N[C@H]2CC[C@@H](Oc3ccc4nnc(N5CCCCC5)n4c3)c3ccccc32)n(-c2cccc(COCCO)c2)n1 [Example 48, 1-{5-tert-Butyl-2-[3-(2-hydroxy-ethoxymethyl)-phenyl]-2H-pyrazol-3-yl}-3-[(1S,4R)-4-(3-piperidin-1-yl-[1,2,4]triazolo[4,3-a]pyridin-6-yloxy)-1,2,3,4-tetrahydro-naphthalen-1-yl]-urea] | < 10
< 10 | CN1CCN(Cc2cccc(-n3nc(C(C)(C)C)cc3NC(=O)N[C@H]3CC[C@@H](Oc4ccc5nnc(N6CCCCC6)n5c4)c4ccccc43)c2)CC1 [Example 41, 1-{5-tert-Butyl-2-[3-(4-methyl-piperazin-1-ylmethyl)-phenyl]-2H-pyrazol-3-yl}-3-[(1S,4R)-4-(3-piperidin-1-yl-[1,2,4]triazolo[4,3-a]pyridin-6-yloxy)-1,2,3,4-tetrahydro-naphthalen-1-yl]-urea] | < 10
< 10 | Cc1ccc(-n2nc(C(C)(C)C)cc2NC(=O)N[C@H]2CC[C@@H](Oc3ccc4nnc(-c5ccccc5CN5CCOCC5)n4c3)c3ccccc32)cc1 [Example 20, 1-(5-tert-Butyl-2-p-tolyl-2H-pyrazol-3-yl)-3-{(1S,4R)-4-[3-(2-morpholin-4-ylmethyl-phenyl)-[1,2,4]triazolo[4,3-a]pyridin-6-yloxy]-1,2,3,4-tetrahydro-naphthalen-1-yl}-urea] | < 10
< 10 | Cc1ccc(-n2nc(C(C)(C)C)cc2NC(=O)N[C@H]2CC[C@@H](Oc3ccc4nnc(CC5CCN(CC(F)F)CC5)n4c3)c3ccccc32)cc1 [Example 23, 1-(5-tert-Butyl-2-p-tolyl-2H-pyrazol-3-yl)-3-((1S,4R)-4-{3-[1-(2,2-difluoro-ethyl)-piperidin-4-ylmethyl]-[1,2,4]triazolo[4,3-a]pyridin-6-yloxy}-1,2,3,4-tetrahydro-naphthalen-1-yl)-urea] | < 10
< 10 | Cc1ccc(-n2nc(C(C)(C)C)cc2NC(=O)N[C@H]2CC[C@@H](Oc3ccc4nnc(N(C)C)n4c3)c3ccccc32)cc1 [Example 59, 1-(5-tert-Butyl-2-p-tolyl-2H-pyrazol-3-yl)-3-[(1S,4R)-4-(3-dimethylamino-[1,2,4]triazolo[4,3-a]pyridin-6-yloxy)-1,2,3,4-tetrahydro-naphthalen-1-yl]-urea] | < 10
< 10 | Cc1ccc(-n2nc(C(C)(C)C)cc2NC(=O)N[C@H]2CC[C@@H](Oc3ccc4nnc([C@@H]5CC(C)(C)CN5C)n4c3)c3ccccc32)cc1 [Example 87, 1-(5-tert-Butyl-2-p-tolyl-2H-pyrazol-3-yl)-3-{(1S,4R)-4-[3-((S)-1,4,4-trimethyl-pyrrolidin-2-yl)-[1,2,4]triazolo[4,3a]pyridin-6-yloxy]-1,2,3,4-tetrahydro-naphthalen-1-yl}-urea] | < 10
< 10 | CN(C)CCCn1cc(-n2nc(C(C)(C)C)cc2NC(=O)N[C@H]2CC[C@@H](Oc3ccc4nnc(N5CCCCC5)n4c3)c3ccccc32)cn1 [Example 113, 1-[3-tert-Butyl-1′-(3-dimethylamino-propyl)-1′H-[1,4′]bipyrazolyl-5-yl]-3-[(1S,4R)-4-(3-piperidin-1-yl-[1,2,4]triazolo[4,3-a]pyridin-6-yloxy)-1,2,3,4-tetrahydro-naphthalen-1-yl]-urea formate salt] | < 10
< 10 | CN(C)CCn1cnc(-n2nc(C(C)(C)C)cc2NC(=O)N[C@H]2CC[C@@H](Oc3ccc4nnc(N5CCCCC5)n4c3)c3ccccc32)c1 [Example 119, 1-{5-tert-Butyl-2-[1-(2-dimethylamino-ethyl)-1H-imidazol-4-yl]-2H-pyrazol-3-yl}-3-[(1S,4R)-4-(3-piperidin-1-yl-[1,2,4]triazolo[4,3-a]pyridin-6-yloxy)-1,2,3,4-tetrahydro-naphthalen-1-yl]-urea] | 10 to 100
< 10 | Cc1ccc(-n2nc(C(C)(C)C)cc2NC(=O)N[C@H]2CC[C@@H](Oc3ccc4nnc(N5CCN(C)CC5)n4c3)c3ccccc32)cc1 [Example 68, 1-(5-tert-Butyl-2-p-tolyl-2H-pyrazol-3-yl)-3-{(1S,4R)-4-[3-(4-methyl-piperazin-1-yl)-[1,2,4]triazolo[4,3-a]pyridin-6-yloxy]-1,2,3,4-tetrahydro-naphthalen-1-yl}-urea] | < 10
< 10 | CC(C)N(c1nnc2ccc(O[C@@H]3CC[C@H](NC(=O)Nc4cc(C(C)(C)C)nn4-c4cccc(OCCN(C)C)c4)c4ccccc43)cn12)C(C)C [Example 103, 1-{5-tert-Butyl-2-[3-(2-dimethylamino-ethoxy)-phenyl]-2H-pyrazol-3-yl}-3-[(1S,4R)-4-(3-diisopropylamino-[1,2,4]triazolo[4,3-a]pyridin-6-yloxy)-1,2,3,4-tetrahydro-naphthalen-1-yl]-urea] | < 10
< 10 | Cc1ccc(-n2nc(C(C)(C)C)cc2NC(=O)N[C@H]2CC[C@@H](Oc3ccc4nnc(N5CCC[C@@H]5CO)n4c3)c3ccccc32)cc1 [Example 27, 1-(5-tert-Butyl-2-p-tolyl-2H-pyrazol-3-yl)-3-{(1S,4R)-4-[3-((R)-2-hydroxymethyl-pyrrolidin-1-yl)-[1,2,4]triazolo[4,3-a]pyridin-6-yloxy]-1,2,3,4-tetrahydro-naphthalen-1-yl}-urea] | < 10
< 10 | Cc1ccc(-n2nc(C(C)(C)C)cc2NC(=O)N[C@H]2CC[C@@H](Oc3ccc4nnc(N5CC[C@@H](CO)C5)n4c3)c3ccccc32)cc1 [Example 93, 1-(5-tert-Butyl-2-p-tolyl-2H-pyrazol-3-yl)-3-{(1S,4R)-4-[3-((R)-3-hydroxymethyl-pyrrolidin-1-yl)-[1,2,4]triazolo[4,3-a]pyridin-6-yloxy]-1,2,3,4-tetrahydro-naphthalen-1-yl}-urea] | < 10
< 10 | Cc1ccc(-n2nc(C(C)(C)C)cc2NC(=O)N[C@H]2CC[C@@H](Oc3ccc4nnc(CN5CCNCC5)n4c3)c3ccccc32)cc1 [Example 7, 1-(5-tert-Butyl-2-p-tolyl-2H-pyrazol-3-yl)-3-[(1S,4R)-4-(3-piperazin-1-ylmethyl-[1,2,4]triazolo[4,3-a]pyridin-6-yloxy)-1,2,3,4-tetrahydro-naphthalen-1-yl]-urea] | 100 to 1000
